Earlier results, collected in patent US20100104638A1 (priority 2008, published 2010).

CC(=O)Nc1ccc(O)cc1 [Acetaminophen, N-(4-hydroxyphenyl) acetamide]
Aqueous solubility: about 14 mg/ml
